{"source": "patent US10772900B2", "about": "“Drug target for treating veterinary infections and methods of using same” (THE TRUSTEES OF THE UNIVERSITY OF PENNSYLVANIA, priority 2016, dated 2020)", "key": {"[1]": {"tested_on": "S. pseudintermedius", "experiment": "MIC and MBC assays in Mueller-Hinton broth", "type": "cell-based, Staphylococcus pseudintermedius", "procedure": "(§1) The minimal inhibitory concentration (MIC) of various antimicrobials (amoxicillin-clavulanic acid, ampicillin, cefazolin, chloramphenicol, ciprofloxacin, clindamycin, erythromycin, gentamicin, imipenem, oxacillin, penicillin, rifampin, tetracycline, trimethoprim-sulfamethoxazole, and vancomycin) was determined via broth microdilution on a MicroScan Walkaway 40 PC20 Gram-positive combo-panel (Dade Behring, Sacramento, Calif.). Enrofloxacin and marbofloxacin susceptibilities were determined via Kirby-Bauer disk diffusion as these drugs were not available on the pre-configured commercial test panel. Fosmidomycin MIC assays were performed following clinical laboratory standards. Fosmidomycin (Sigma, St. Louis, USA) was filter-sterilized with a […] filter (Pall Corporation, Ann Arbor, USA) and was serially 2-fold diluted in a concentration range of 40.96-0.25 mg/mL. Tubes containing 1 mL Mueller-Hinton broth (Sigma) were inoculated with 5×10^5 colony forming units/mL. […] The MICS were determined by visual inspection. The minimum bactericidal concentration (MBC) was determined by plating 200 μL of the drug-treated cultures onto Mueller-Hinton agar plates (Remel, Lenexa, USA). The lowest concentration at which there was no growth after a 24-hour incubation at 37° C. was determined to be the MBC. […]"}, "[2]": {"tested_on": "S. aureus", "experiment": "plate-based fosmidomycin growth assay", "type": "cell-based, Staphylococcus aureus", "details": "50 μg/mL fosmidomycin, Mueller-Hinton agar, 24 hours at 37° C.", "procedure": "as §1"}, "[3]": {"tested_on": "S. pseudintermedius", "experiment": "plate-based fosmidomycin growth assay", "type": "cell-based, Staphylococcus pseudintermedius", "details": "50 μg/mL fosmidomycin, Mueller-Hinton agar, 24 hours at 37° C.", "procedure": "as §1"}, "[4]": {"tested_on": "S. epidermidis", "experiment": "plate-based fosmidomycin growth assay", "type": "cell-based, Staphylococcus epidermidis", "details": "50 μg/mL fosmidomycin, Mueller-Hinton agar, 24 hours at 37° C.", "procedure": "as §1"}, "[5]": {"tested_on": "S. lugdunensis", "experiment": "MIC and MBC assays in Mueller-Hinton broth", "type": "cell-based", "details": "Staphylococcus lugdunensis, 37° C., 18-20 hours, read-out: MIC (concentration at which bacteria still grew normally)", "procedure": "(§2) The minimal inhibitory concentration (MIC) of various antimicrobials (amoxicillin-clavulanic acid, ampicillin, cefazolin, chloramphenicol, ciprofloxacin, clindamycin, erythromycin, gentamicin, imipenem, oxacillin, penicillin, rifampin, tetracycline, trimethoprim-sulfamethoxazole, and vancomycin) was determined via broth microdilution on a MicroScan Walkaway 40 PC20 Gram-positive combo-panel (Dade Behring, Sacramento, Calif.). Enrofloxacin and marbofloxacin susceptibilities were determined via Kirby-Bauer disk diffusion as these drugs were not available on the pre-configured commercial test panel. Fosmidomycin MIC assays were performed following clinical laboratory standards. Fosmidomycin (Sigma, St. Louis, USA) was filter-sterilized with a […] filter (Pall Corporation, Ann Arbor, USA) and was serially 2-fold diluted in a concentration range of 40.96-0.25 mg/mL. Tubes containing 1 mL Mueller-Hinton broth (Sigma) were inoculated with 5×10^5 colony forming units/mL. 50 μL of the appropriate fosmidomycin concentration was added to each tube containing the starter culture, and was incubated at 37° C. overnight with shaking at 250 rpm for 18-20 hours. The MICS were determined by visual inspection. The minimum bactericidal concentration (MBC) was determined by plating 200 μL of the drug-treated cultures onto Mueller-Hinton agar plates (Remel, Lenexa, USA). The lowest concentration at which there was no growth after a 24-hour incubation at 37° C. was determined to be the MBC. For the plate-based fosmidomycin growth assay, overnight cultures of Staphylococcus species grown in Mueller-Hinton broth were sub-cultured to Mueller-Hinton agar plates containing 50 μg/mL fosmidomycin and were incubated for 24 hours at 37° C. All assays were performed and the results were interpreted using Clinical Laboratory Standards Institute guidelines (CLSI. (2013) Approved Standard-Fourth Edition. Clinical and Laboratory Standards Institute, Wayne, Pa., USA)."}, "[6]": {"tested_on": "S. epidermidis", "experiment": "MIC and MBC assays in Mueller-Hinton broth", "type": "cell-based", "details": "Staphylococcus epidermidis, 37° C., 18-20 hours, read-out: MIC (concentration at which bacteria still grew normally)", "procedure": "as §2"}, "[7]": {"tested_on": "S. aureus", "experiment": "MIC and MBC assays in Mueller-Hinton broth", "type": "cell-based", "details": "Staphylococcus aureus, 37° C., 18-20 hours, read-out: MIC (concentration at which bacteria still grew normally)", "procedure": "as §2"}, "[8]": {"tested_on": "Plasmodium falciparum", "details": "clinical trials, malaria, administered alone or in combination with clindamycin; cited from earlier work"}, "[9]": {"tested_on": "S. schleiferi", "experiment": "plate-based fosmidomycin growth assay", "type": "cell-based, Staphylococcus schleiferi", "details": "50 μg/mL fosmidomycin, Mueller-Hinton agar, 24 hours at 37° C.", "procedure": "as §1"}, "[10]": {"experiment": "fosmidomycin safety trial for otic application in dogs", "type": "in vivo, dog", "details": "100 micrograms in sterile water twice daily to both ears, 10 days", "procedure": "FIGS. 7A-7C are a series of plots illustrating the outcome of a fosmidomycin safety trial for otic application in dogs. Five colony dogs were used in the safety study. Four of the five dogs were homozygous for ectodermal dysplasia, while the remaining dog was a carrier (heterozygote). Each dog was treated with 100 micrograms of fosmidomycin resuspended in water and applied twice daily to both ears. Pain and inflammation were assessed using the Short Form of the Glasgow Composite Pain Scale (FIG. 7A) and the Otitis Index Score (FIG. 7B and FIG. 7C), respectively. Clinical scoring was carried out prior to fosmidomycin treatment (“pre”), each day of drug application for 10 days, and one day after the cessation of treatment (“post”). Bars represent the mean and standard deviation of scores for the group of 5 dogs at each timepoint. Dotted lines represent field-standard thresholds for clinically significant pain or inflammation.\nFive research dogs were used in a safety study testing otic application of fosmidomycin. Four of the five dogs were homozygous for ectodermal dysplasia, while the remaining dog was a carrier (heterozygote). […] Pain and inflammation were assessed using the Short Form of the Glasgow Composite Pain Scale (FIG. 7A) and the Otitis Index Score (FIG. 7B and FIG. 7C), respectively. […]"}, "[11]": {"tested_on": "S. schleiferi", "experiment": "MIC and MBC assays in Mueller-Hinton broth", "type": "cell-based, Staphylococcus schleiferi", "procedure": "as §2"}, "[12]": {"tested_on": "Plasmodium falciparum", "details": "cited from earlier work"}, "[13]": {"tested_on": "S. sciuri", "experiment": "MIC and MBC assays in Mueller-Hinton broth", "type": "cell-based, Staphylococcus sciuri", "procedure": "as §1"}, "[14]": {"details": "plated on Mueller-Hinton agar, 24-hour incubation at 37° C."}}, "data": [{"compound": "O=CN(O)CCCP(=O)(O)O", "note": "[fosmidomycin]", "values": [{"measurement": "MIC", "setting": "[1]; Staphylococcus pseudintermedius, Mueller-Hinton broth, 37° C., 18-20 hours, read-out: MIC (inhibited by concentrations as low as)", "result": "≥ 0.5", "unit": "µg/mL"}, {"measurement": "MBC (killed by concentrations of)", "setting": "[1]; [14]", "result": "4 to 16", "unit": "µg/mL"}, {"measurement": "growth on agar plates containing fosmidomycin", "setting": "[2]", "result": "grew"}, {"measurement": "growth on agar plates containing fosmidomycin", "setting": "[3]", "result": "completely restricted growth"}, {"measurement": "growth on agar plates containing fosmidomycin", "setting": "[4]", "result": "grew"}, {"measurement": "MIC", "setting": "[5]", "result": "> 256", "unit": "µg/mL"}, {"measurement": "MIC", "setting": "[6]", "result": "> 256", "unit": "µg/mL"}, {"measurement": "MIC", "setting": "[7]", "result": "> 256", "unit": "µg/mL"}, {"measurement": "cure rates", "setting": "[8]", "result": "85-100%"}, {"measurement": "growth on agar plates containing fosmidomycin", "setting": "[9]", "result": "completely restricted growth"}, {"measurement": "inflammation score (Otitis Index Score)", "setting": "[10]", "result": "clinically insignificant"}, {"measurement": "pain score (Short Form of the Glasgow Composite Pain Scale)", "setting": "[10]", "result": "clinically insignificant"}, {"measurement": "inhibition of multi-drug resistant strain", "setting": "[11]; S. schleiferi strain 1360-13, multi-drug resistant phenotype", "result": "inhibited"}, {"measurement": "MIC", "setting": "[11]; Staphylococcus schleiferi, Mueller-Hinton broth, 37° C., 18-20 hours, read-out: MIC (inhibited by concentrations as low as)", "result": "≥ 0.5", "unit": "µg/mL"}, {"measurement": "MBC (killed by concentrations of)", "setting": "[11]; [14]", "result": "4 to 16", "unit": "µg/mL"}, {"measurement": "killing the parasite in culture", "setting": "[12]", "result": "effective"}, {"measurement": "MIC", "setting": "[13]; Mammaliicoccus sciuri, Mueller-Hinton broth, 37° C., 18-20 hours, read-out: MIC (inhibited by concentrations as low as)", "result": "≥ 0.5", "unit": "µg/mL"}, {"measurement": "MBC (killed by concentrations of)", "setting": "[13]; [14]", "result": "4 to 16", "unit": "µg/mL"}]}]}
